Test results taken from a melting point compilation (Tetko et al.; mined from patent text by program, amines drawn as free bases though some values may be those of a salt).

Row | melting point | SMILES
1 | 98 to 99 °C | O=[N+]([O-])c1cc(S(=O)c2ccc(-c3ccccc3)cc2)ccc1Cl (configuration not stated)
2 | 190 to 192 °C | Cc1cn([C@H]2C=C[C@@H](O)C2)c(=O)nc1N (racemic)
3 | 83 to 88 °C | COc1ccc(I)c(OCC(O)CNCCc2ccc(OC)c(OC)c2)c1 (configuration not stated)
4 | 297 °C | Nc1nc(OCC2CCCCC2)c2c(n1)=NC(=O)N=2
5 | 166 to 168 °C | CCOC(=O)C(C)(C)n1c(=O)[nH]c2cc(F)c(F)cc2c1=O
6 | 71 to 77 °C | Cc1cc(C2=C(C=CC3CC(O)CC(=O)O3)C(C)(C)CC(N3C(=O)CCC3=O)C2)ccc1F (configuration not stated)
7 | 147 to 148 °C | CC(C)c1nc(CN2C(=O)C3(COc4cc5c(cc43)OCO5)c3c(Cl)cccc32)cs1 (configuration not stated)
8 | 252 °C | CCCCNC(=O)Nc1cccc2c1C(=O)c1c-2n[nH]c1-c1ccc(OC)cc1
9 | 148 to 156 °C | Cc1nc(C)c(C=O)c(N)n1
10 | 100 to 105 °C | CCc1nn(CCN)c(CC)c1Cc1cc(C#N)cc(C#N)c1
11 | 75 to 78 °C | COc1ccc(S(=O)(=O)C(CCCCc2ccccc2)(CC(=O)O)c2ccccc2)cc1 (configuration not stated)
12 | 120 to 124 °C | O=C(O)CNS(=O)(=O)c1ccc(N2CCN(c3ccccc3)CC2)cc1
13 | 210 to 212 °C | CN(N=Cc1ccc(Br)cc1)C(=O)c1[nH]c2ccccc2c1-c1ccccc1
14 | 134 °C | O=C1N(CO)CCN1C(c1ccccc1)c1ccccc1
15 | 145 to 146 °C | CCCCCCCCCCCCCCCCCCOC(C)c1ccc(-c2ccc(C(=O)O)cc2)cc1 (single isomer, unassigned; (+))
16 | 214 to 215 °C | OC(Cc1nnn[nH]1)(Cn1cncn1)c1ccc(Cl)cc1Cl (configuration not stated)
17 | 96 to 98 °C | N=C(NCl)c1ccsc1
18 | 159 to 161 °C | CC(CC(C)(C)O)=NO
19 | 155 to 157 °C | Cc1c(C)c2c(c(C)c1NC(=O)OC(C)(C)C)C(O)(c1ccc(C(C)C)cc1)C(C)(C)O2 (configuration not stated)
20 | 90 to 92 °C | CC(C)c1cnc(NC(=O)Nc2cccc(I)c2)s1
21 | 193 to 195 °C | Nc1ccn(C2CCCO2)c(=O)n1 (configuration not stated)
22 | 193 to 195 °C | CCCn1nc2c(N)nc3ccccc3c2c1CC(C)(C)N
23 | 157 to 160 °C | CC(=O)SCC(C(=O)NCCc1nnn[nH]1)C(F)(F)F (configuration not stated)
24 | 281 to 284 °C | CC(=CC(=O)O)C(=O)NN

Row | melting point | SMILES
25 | 84 to 87 °C | CCCc1[nH]c(C(=O)OCC)c(C)c1CCC
26 | 172 to 175 °C | CC(=O)OCc1cc(=O)n2c(ccn2-c2ccccc2)n1
27 | 89.5 to 90.5 °C | OC(c1ccccc1)(c1ccccc1)C1CCN(Cc2ccccc2)CC1
28 | 246 °C | Cn1cncc1C(O)(c1ccc2c(c1)c(-c1cccc(Cl)c1)cc(=O)n2C)c1nccs1 (configuration not stated)
29 | 114 to 116 °C | CCNC(C)c1nc(CSCCNC(=C[N+](=O)[O-])NC)cs1 (configuration not stated)
30 | 94 to 96 °C | CC1(C)CON(Cc2ccc(NC(=O)c3ncccc3C(=O)O)cc2Cl)C1=O
31 | 183 to 184 °C | CCOCc1nc2c(N)nc3ccc(OCc4ccccc4)cc3c2n1CC(C)C
32 | 193 to 195 °C | Cc1nc(-c2ccc(C(=O)N3Cc4cccn4Cc4ccccc43)cc2)n(C)n1
33 | > 260 °C | Cc1nnc(Cl)c2cc(O)ccc12
34 | 139 to 141 °C | CCCCN(CCCC)C(=S)Nc1ccc(NNC=O)cc1
35 | 252 °C | Cc1c(-n2c(C)ccc2C)cc(CC(C#N)=CNc2ccccc2)cc1-n1c(C)ccc1C
36 | 207 to 210 °C | COc1ccc(S(=O)(=O)N(Cc2ccccc2)c2c(C(=O)O)cnc3c2c(C)nn3-c2ccccc2)cc1
37 | 112 °C | CCCCOc1cc(/C=C(\OCC)C(=O)O)ccc1OCCc1ccc(N(C)S(C)(=O)=O)cc1
38 | 184 to 188 °C | C=CCc1cc(C=C2SCNC2=O)cc(CC=C)c1O
39 | 148 to 149 °C | CC(C)C(C(=O)O)c1onc(-c2ccccc2)c1-c1ccc(S(N)(=O)=O)cc1 (configuration not stated)
40 | 209 to 211 °C | CCc1nc(N)sc1-c1ccncc1
41 | 107 to 109 °C | Cc1cccc2nc(C)n(-c3ccccc3)c12
42 | 123 °C | Cc1cc(Cl)cc(C(=O)Nc2cccc(F)c2)n1
43 | 216 to 218 °C | Nc1nc(COc2cccc(Cl)c2Cl)nc2nccnc12
44 | 163 to 164 °C | O=C1c2ccccc2C(=O)N1CC(Br)(c1ccccc1)C(F)Br (configuration not stated)
45 | 165 to 166 °C | Cc1ccccc1C(=O)c1nc[nH]c1C
46 | 127 to 129 °C | Cn1c(=O)oc2cc(C(O)CBr)cnc21 (configuration not stated)
47 | 234 to 236 °C | O=C(O)c1cccc(CC2COc3cc(O)ccc3C2=O)c1 (configuration not stated)
48 | 135 to 136 °C | CCN(CC)C(=O)COC(=O)c1ccc(N)cc1

More lines, now with the values behind:

Row | SMILES | melting point
49 | CCOC(=O)c1cnc(SC)nc1NC(C)C | 159 to 160 °C
50 | CSc1ccc(Oc2ccc([N+](=O)[O-])cc2C#N)cc1 | 124 to 126 °C
51 | Cc1ccccc1NC(=O)c1cc([N+](=O)[O-])ccc1NC(=O)CF | 238 to 239 °C
52 | O=S(=O)(Nc1ccc(Cl)cc1Oc1ccc(Cl)cc1Cl)C(F)(F)F | 97 to 98 °C
53 | CC(C)(C)c1cc(N(C(=O)Cc2ccccc2C(=O)O)c2ccccc2)cc(C(C)(C)C)c1O | 170 to 175 °C
54 | CN1C(=O)CN(C(=O)c2ccccc2)N(c2cc(Cl)c(C(C#N)c3ccc(Cl)cc3)c(Cl)c2)C1=O (configuration not stated) | 148 °C
55 | N[C@H](Cc1cccc(OC(F)(F)C(F)F)c1)[C@@H](O)c1csc(-c2ccccc2)n1 (racemic) | 128 to 130 °C
56 | O=C1CCC2CCCC(CCC(=O)OCc3ccccc3)C2N1 (configuration not stated) | 101 to 102 °C
57 | Cc1nccn1C(C)CC(O)(c1ccccc1)c1ccccc1 (configuration not stated) | 168 to 169 °C
58 | C=Cc1ncc2[nH]c3cccc(OCc4ccccc4)c3c2c1COC | 183 to 185 °C
59 | O=C(c1ccc(Cl)cc1)c1cc([N+](=O)[O-])ccc1N1CCC(O)CC1 | 142 °C
60 | CCCCCCCCOC(C)c1ccc(-c2ccc(C(=O)O)cc2)cc1 (single isomer, unassigned; (+)) | 139 to 140 °C
61 | Nc1ccccc1-c1nnc(-c2ccc(C(=O)O)cc2)o1 | > 300 °C
62 | Cn1cc(-c2cc3nccnc3[nH]2)c2cc(O)ccc21 | 289 to 290 °C
63 | Cn1c(=O)n(Cc2ccc(Cl)cc2Cl)c(=O)c2ccc(C(=O)O)cc21 | 308 to 310 °C
64 | Cc1[nH]n(C2CCCC2)c2nc(-c3cc[nH]c(=O)c3)nc(=O)c1-2 | > 300 °C
65 | COc1cccc2cc(C(=O)OCC(C)C)[nH]c12 | 100 to 101 °C
66 | CCCOC(=O)NCCCC1(O)c2ccccc2C=Cc2c(C)cccc21 (configuration not stated) | 157 to 159 °C
67 | COC(=O)c1cc2ccccc2n1C1=CC(C)(C)Oc2ccc(C#N)cc21 | 197 to 200 °C
68 | NC(N)=Nc1nc(N2CCOCC2)nc2c1ccc1ccccc12 | 235 °C
69 | Cn1cc(C(=O)NCc2ccc(Cl)cc2)c(=O)c2cc(CN3CCOCC3)cc(C#CCCO)c21 | 168 to 170 °C
70 | Cc1cc(Cl)cc(C(=O)NCC2CCO2)c1NC(=O)c1cc(Br)nn1-c1ncccc1Cl (configuration not stated) | 95 to 97 °C
71 | CC(=O)OC1C(C)OC(n2c(Br)nc3cc(Cl)c(Cl)cc32)C1OC(C)=O (configuration not stated) | 145 to 148 °C
72 | COc1ccc(C(=O)C2CCN(C(C)=O)CC2)cc1 | 102 to 105 °C
73 | O=C(O)c1cn(-c2ccc(F)cc2)c2cc(F)c(F)cc2c1=O | 252 to 256 °C
74 | C[C@@H]1S[C@@H](C(=O)Nc2ccc(CN3C(=O)CNC3=O)cc2)Cc2cc3c(cc2C1=O)OCO3 | 139 to 144 °C
75 | Cc1cc2c(cc1Cl)C(c1ccccc1)(N1CCOCC1)ON2C(C)(C)C (configuration not stated) | 131 to 133 °C

Row | SMILES | melting point
76 | COC[C@@H](NC(C)=O)C(=O)NCc1ccc(N=[N+]=[N-])cc1 | 149 to 150 °C
77 | CC(Cc1ccc(CC2SC(=O)NC2=O)cc1)NCC(O)c1cc(Cl)c(N)c(Cl)c1 (configuration not stated) | 195 to 201 °C
78 | COCc1ccc(C#Cc2ccc3c(c2)C(C)(C)CCC3(C)C)cc1 | 93 to 94 °C
79 | CC(C)C(NC(=O)CCc1cccnc1)C(=O)NC(Cc1ccccc1)C(O)C(O)C(Cc1ccccc1)NC(=O)C(NC(=O)CCc1cccnc1)C(C)C (configuration not stated) | 260 to 263 °C
80 | CN(CCN1CCN(c2cccc(C(F)(F)F)n2)CC1)C(=O)c1ccc(F)cc1 | 144 °C
81 | NS(=O)(=O)Cc1ccccc1-c1nnc(S)o1 | 224 to 227 °C
82 | COC(=O)CCC(=O)c1ccc(F)cc1 | 48 to 50 °C
83 | Cc1ccc2c3c(ccc2n1)OC[C@H](CN1CCN(c2cccc(Cl)c2)CC1)O3 | 110 to 112 °C
84 | CCC(=O)N1N=C(c2ccc(N)cc2)c2cc(Cl)ccc2CC1C (configuration not stated) | 118 to 120 °C
85 | O=c1cc(N2CCOCC2)oc2ccc(-c3ccccc3)cc12 | 218 to 220 °C
86 | CN(C)C(=O)Nc1c(C(=O)c2occc2CO)[nH]c2cc(Cl)ccc12 | 238 °C
87 | O=C(O)CC1Cc2ccccc2NC1=O (configuration not stated) | 145 to 146 °C
88 | Nc1ccc2c(C(F)(F)F)cc(C(F)(F)F)nc2n1 | 198 to 204 °C
89 | CCOC(=O)CC1(CC)OCCc2c1[nH]c1c(C)cccc21 (configuration not stated) | 77 to 78 °C
90 | NC(=S)N1CCN(c2ccccc2)CC1 | 178 to 179 °C
91 | CCOc1csc2c(O)c(SC)cnc12 | 180 to 183 °C
92 | N#CCC=Cc1ccc(Cc2ccc(C=CCC#N)cc2)cc1 | 128 to 130 °C
93 | COc1cccc2c1cc(C=O)n2Cc1ccccc1 | 130 to 131 °C
94 | COc1cccc2c1OC(C(=O)Nc1ccncc1)C2CC(=O)O (configuration not stated) | 227 to 233 °C
95 | CC(CCCC(C)(C)O)C1CCC2C3CC=C4CC(O)CC(O)C4(C)C3CCC12C (configuration not stated) | 170 to 172 °C
96 | O=Cc1ccc(-c2cccc(-c3ccnc4c(C(=O)c5cccs5)cnn34)c2)cc1 | 156 to 158 °C
97 | CNC(=O)c1cccc(NC(=O)C2(c3ccccc3)CCCC2)c1 | 147 °C
98 | Cc1c2c(c(C)c3c1NCC3)OC(C)(C)C2 | 105 to 107 °C
99 | CCCc1nnc(/C=C/c2nc(-c3ccccc3)oc2COc2ccc(OCc3nc(-c4ccccc4)oc3C)cc2)o1 | 119 to 120 °C
100 | O=C(c1c(Cl)cccc1Cl)P(=O)(C(=O)c1c(Cl)cccc1Cl)c1ccccc1 | 194 °C
101 | CCn1c(=O)c2nc(-c3ccc(/C=C/C(=O)O)cc3)[nH]c2n(C)c1=O | > 300 °C
102 | NC(=O)c1nc(-c2cccnc2O)nc2c1[nH]c(=O)n2-c1ccccc1C(F)(F)F | 331 to 335 °C
